From patent publication US20200170975A1 (Strongbridge Dublin Limited, priority 2018, published 2020)
Where two headings read alike, the source gives them in different places. Values belong to the molecule of their own block, whether it stands above or below them.

Columns and labels:
[1] = target: P-gp (Homo sapiens, UniProt P08183); test: P-gp inhibition: bidirectional transport of digoxin across Caco-2 cells
[2] = target: T1, BCRP (Homo sapiens, UniProt Q9UNQ0); test: BCRP inhibition: bidirectional transport of prazosin across MDCKII-BCRP and control MDCKII cells
T1 sequence (Q9UNQ0 1-655): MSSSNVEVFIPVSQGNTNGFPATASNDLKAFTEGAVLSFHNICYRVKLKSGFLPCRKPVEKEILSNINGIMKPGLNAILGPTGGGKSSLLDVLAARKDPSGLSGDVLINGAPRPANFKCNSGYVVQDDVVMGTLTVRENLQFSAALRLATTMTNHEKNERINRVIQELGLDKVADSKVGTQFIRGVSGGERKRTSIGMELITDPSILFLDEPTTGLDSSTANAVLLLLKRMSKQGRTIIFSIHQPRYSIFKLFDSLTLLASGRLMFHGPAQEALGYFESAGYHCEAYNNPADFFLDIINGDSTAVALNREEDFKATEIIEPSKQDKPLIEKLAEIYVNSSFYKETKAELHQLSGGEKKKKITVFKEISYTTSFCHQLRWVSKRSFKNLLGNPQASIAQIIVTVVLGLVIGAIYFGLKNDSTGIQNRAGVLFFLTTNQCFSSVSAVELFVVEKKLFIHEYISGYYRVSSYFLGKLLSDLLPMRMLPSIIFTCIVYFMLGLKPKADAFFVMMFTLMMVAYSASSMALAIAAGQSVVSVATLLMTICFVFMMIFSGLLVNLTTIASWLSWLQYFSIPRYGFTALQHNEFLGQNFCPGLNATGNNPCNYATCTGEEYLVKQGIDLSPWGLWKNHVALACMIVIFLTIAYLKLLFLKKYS
Description: MDCKII P-gp, MDCKII BCRP and control MDCKII cells were purchased from the Netherlands Cancer Institute.

[3] = target: MATE2-K (Homo sapiens, UniProt Q86VL8); settings: [14C]-Metformin 10 μM
Method: (§1) [^14C]-Metformin (1 mM) was provided as a solid and was prepared in Hank's balanced salt solution (HBSS).
(§2) Cells were plated onto standard 24-well tissue culture plates in cell culture medium 1 to 3 days before the experiment. MATE1 and MATE2-K and control cells were incubated with butyric acid (10 mM) for 24 hours before the experiment to inhibit suppression of the transporter.

[4] = target: T2, MATE1 (Homo sapiens, UniProt Q96FL8)
T2 sequence (Q96FL8 1-570): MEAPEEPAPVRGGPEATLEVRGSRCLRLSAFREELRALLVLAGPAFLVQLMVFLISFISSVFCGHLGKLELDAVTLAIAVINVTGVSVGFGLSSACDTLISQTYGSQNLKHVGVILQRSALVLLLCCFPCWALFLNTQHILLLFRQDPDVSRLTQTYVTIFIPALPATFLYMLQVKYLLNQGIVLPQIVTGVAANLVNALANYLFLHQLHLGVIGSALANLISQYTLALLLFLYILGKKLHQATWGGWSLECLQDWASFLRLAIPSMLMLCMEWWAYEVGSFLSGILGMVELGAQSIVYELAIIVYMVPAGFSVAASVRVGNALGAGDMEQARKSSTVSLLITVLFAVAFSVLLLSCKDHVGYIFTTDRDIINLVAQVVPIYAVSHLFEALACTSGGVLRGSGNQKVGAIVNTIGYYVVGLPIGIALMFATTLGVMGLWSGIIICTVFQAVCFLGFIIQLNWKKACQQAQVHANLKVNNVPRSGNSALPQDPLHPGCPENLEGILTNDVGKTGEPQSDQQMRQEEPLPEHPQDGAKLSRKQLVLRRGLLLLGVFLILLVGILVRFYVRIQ
Method: as §1, §2

Sequence of MATE2-K (Q86VL8 1-566 isoform Q86VL8-3): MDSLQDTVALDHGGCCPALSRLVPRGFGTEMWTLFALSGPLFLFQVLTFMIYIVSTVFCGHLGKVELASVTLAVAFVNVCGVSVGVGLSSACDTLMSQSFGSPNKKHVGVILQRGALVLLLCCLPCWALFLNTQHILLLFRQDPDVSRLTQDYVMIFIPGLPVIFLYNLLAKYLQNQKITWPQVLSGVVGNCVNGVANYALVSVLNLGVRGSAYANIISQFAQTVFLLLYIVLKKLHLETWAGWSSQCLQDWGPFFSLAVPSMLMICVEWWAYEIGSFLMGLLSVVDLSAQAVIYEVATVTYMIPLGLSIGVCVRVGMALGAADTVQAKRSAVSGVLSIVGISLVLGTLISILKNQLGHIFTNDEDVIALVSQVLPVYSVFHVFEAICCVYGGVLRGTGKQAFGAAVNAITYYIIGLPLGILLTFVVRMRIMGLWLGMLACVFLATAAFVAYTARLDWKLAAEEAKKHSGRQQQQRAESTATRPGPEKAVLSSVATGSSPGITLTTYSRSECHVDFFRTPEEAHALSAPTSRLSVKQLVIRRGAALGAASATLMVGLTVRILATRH
Sequence of P-gp (P08183 whole entry): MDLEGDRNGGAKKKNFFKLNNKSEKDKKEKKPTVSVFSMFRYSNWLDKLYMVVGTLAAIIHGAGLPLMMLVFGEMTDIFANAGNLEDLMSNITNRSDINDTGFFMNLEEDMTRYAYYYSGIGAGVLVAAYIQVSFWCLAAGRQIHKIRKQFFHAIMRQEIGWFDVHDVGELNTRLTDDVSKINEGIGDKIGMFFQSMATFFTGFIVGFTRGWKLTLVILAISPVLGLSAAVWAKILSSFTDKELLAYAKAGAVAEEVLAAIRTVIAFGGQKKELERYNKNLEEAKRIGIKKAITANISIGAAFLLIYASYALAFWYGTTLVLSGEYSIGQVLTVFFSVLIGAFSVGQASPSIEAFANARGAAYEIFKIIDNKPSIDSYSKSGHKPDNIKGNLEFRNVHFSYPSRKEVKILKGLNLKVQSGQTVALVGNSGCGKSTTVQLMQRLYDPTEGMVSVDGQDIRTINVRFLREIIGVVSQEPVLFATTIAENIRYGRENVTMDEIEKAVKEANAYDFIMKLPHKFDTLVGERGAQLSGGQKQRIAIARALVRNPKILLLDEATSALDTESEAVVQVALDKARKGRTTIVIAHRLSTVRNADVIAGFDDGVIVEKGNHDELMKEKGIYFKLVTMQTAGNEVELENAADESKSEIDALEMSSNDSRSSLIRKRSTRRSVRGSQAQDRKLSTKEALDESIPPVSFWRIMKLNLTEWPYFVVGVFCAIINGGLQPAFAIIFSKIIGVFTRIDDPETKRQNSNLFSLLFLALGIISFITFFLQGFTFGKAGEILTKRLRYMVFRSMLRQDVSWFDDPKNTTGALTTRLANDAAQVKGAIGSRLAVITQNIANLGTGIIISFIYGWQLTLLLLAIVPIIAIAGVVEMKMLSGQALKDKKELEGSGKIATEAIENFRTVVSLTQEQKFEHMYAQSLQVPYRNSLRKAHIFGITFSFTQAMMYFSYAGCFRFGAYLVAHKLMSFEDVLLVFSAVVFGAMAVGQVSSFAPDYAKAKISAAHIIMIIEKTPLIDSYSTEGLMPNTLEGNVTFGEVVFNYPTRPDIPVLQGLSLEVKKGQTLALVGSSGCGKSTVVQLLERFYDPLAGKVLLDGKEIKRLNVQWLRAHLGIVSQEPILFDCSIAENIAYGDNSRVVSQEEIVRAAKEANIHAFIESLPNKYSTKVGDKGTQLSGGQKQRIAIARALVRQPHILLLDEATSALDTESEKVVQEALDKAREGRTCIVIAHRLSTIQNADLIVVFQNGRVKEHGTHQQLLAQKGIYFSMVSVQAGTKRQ

Papp A:B (Average ± SD) [1]: 9.12 ± 1.34 ×10^−6 cm/sec
Papp B:A (Average ± SD) [1]: 10.0 ± 2.5 ×10^−6 cm/sec
SMILES: C/C=C/C[C@@H](C)C(=O)[C@H]1C(=O)N[C@@H](C(C)C)C(=O)N(C)CC(=O)N(C)[C@@H](CC(C)C)C(=O)N[C@@H](C(C)C)C(=O)N(C)[C@@H](CC(C)C)C(=O)N[C@@H](C)C(=O)N[C@H](C)C(=O)N(C)[C@@H](CC(C)C)C(=O)N(C)[C@@H](CC(C)C)C(=O)N(C)[C@@H](C(C)C)C(=O)N1C [Valspodar]

Papp Apical to basal (Average ± SD) [2]: 3.23e-05 cm/s
Papp Basal to apical (Average ± SD) [2]: 37.6 ± 1.6 ×10^−6 cm/sec
Papp Apical to basal (Average ± SD) ([2]; MDCK): 13.3 ± 10.0 ×10^−6 cm/sec
Papp Basal to apical (Average ± SD) ([2]; MDCK): 20.9 ± 4.7 ×10^−6 cm/sec
SMILES: Cc1cccc(C)c1OCC(=O)N[C@@H](Cc1ccccc1)[C@@H](O)C[C@H](Cc1ccccc1)NC(=O)[C@H](C(C)C)N1CCCNC1=O [Lopinavir]

Uptake, MATE2-K (Average ± SD) ([3]; MATE2-K HEK293 cells, inhibitor 300 μM): 32.3 ± 11.7 pmol/mg protein
% control ([3]; inhibitor 300 μM): 18.1%
Background corrected uptake rate ([3]; inhibitor 300 μM): 4.99 pmol/mg/min
Uptake, Control (Average ± SD) ([3]; control HEK293 cells, inhibitor 300 μM): 7.34 ± 0.20 pmol/mg protein
% control ([4]; HEK293 cells, inhibitor 10 μm): 19.3%
Background corrected uptake rate ([4]; HEK293 cells, inhibitor 10 μm): 16.0 pmol/mg/min
Uptake, MATE1 (Average ± SD) ([4]; MATE1 HEK293 cells, inhibitor 10 μm): 85.2 ± 7.8 pmol/mg protein
Uptake, Control (Average ± SD) ([4]; control HEK293 cells, inhibitor 10 μm): 5.20 ± 0.63 pmol/mg protein
SMILES: CN/C(=N/CCSCc1nc[nH]c1C)NC#N [Cimetidine]

% control ([3]; inhibitor 0.3 μM): 50.6%
% control ([4]; HEK293 cells, inhibitor 0.1 μm): 14.2%
SMILES: CCc1nc(N)nc(N)c1-c1ccc(Cl)cc1 [Pyrimethamine]
